Assay results taken from PubChem BioAssay (NCI).
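How tested: cells in 96-well plates exposed to compound for 48 hours at five concentrations. The concentration for 50% growth inhibition is given as GI50. TGI denotes the concentration required for complete inhibition of growth.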

What was measured:
Experiment in all cases: NCI-60 cell line screen, 48 h
SR leukemia = system: SR leukemia
SNB-19 CNS = system: SNB-19 CNS
TK-10 renal = system: TK-10 renal
OVCAR-3 ovarian = system: OVCAR-3 ovarian
HCC-2998 colon = system: HCC-2998 colon
RPMI-8226 leukemia = system: RPMI-8226 leukemia
SF-539 CNS = system: SF-539 CNS
SNB-75 CNS = system: SNB-75 CNS
HS 578T breast = system: HS 578T breast
HOP-62 NSCLC = system: HOP-62 NSCLC
NCI-H460 lung = system: NCI-H460 lung
HT29 colon = system: HT29 colon
UACC-62 melanoma = system: UACC-62 melanoma
SW-620 colon = system: SW-620 colon
OVCAR-5 ovarian = system: OVCAR-5 ovarian
NCI-H522 lung = system: NCI-H522 lung
T-47D breast = system: T-47D breast
OVCAR-8 ovarian = system: OVCAR-8 ovarian
PC-3 prostate = system: PC-3 prostate
A498 renal = system: A498 renal
A549 NSCLC = system: A549 NSCLC
U251 CNS = system: U251 CNS
EKVX NSCLC = system: EKVX NSCLC
IGROV1 ovarian = system: IGROV1 ovarian
ACHN renal = system: ACHN renal
HCT-116 colon = system: HCT-116 colon
LOX IMVI melanoma = system: LOX IMVI melanoma
UACC-257 melanoma = system: UACC-257 melanoma
HOP-92 NSCLC = system: HOP-92 NSCLC
HCT-15 colon = system: HCT-15 colon
KM12 colon = system: KM12 colon
MDA-MB-468 breast = system: MDA-MB-468 breast
786-0 renal = system: 786-0 renal
SK-MEL-5 melanoma = system: SK-MEL-5 melanoma
SF-295 CNS = system: SF-295 CNS
MDA-MB-231 breast = system: MDA-MB-231 breast
CAKI-1 renal = system: CAKI-1 renal
CCRF-CEM leukemia = system: CCRF-CEM leukemia
M14 melanoma = system: M14 melanoma
SN12C renal = system: SN12C renal
SF-268 CNS = system: SF-268 CNS
MDA-MB-435 = system: MDA-MB-435
SK-MEL-2 melanoma = system: SK-MEL-2 melanoma
RXF 393 renal = system: RXF 393 renal
OVCAR-4 ovarian = system: OVCAR-4 ovarian
SK-OV-3 ovarian = system: SK-OV-3 ovarian
COLO 205 colon = system: COLO 205 colon
MALME-3M melanoma = system: MALME-3M melanoma
UO-31 renal = system: UO-31 renal
DU-145 prostate = system: DU-145 prostate
K-562 leukemia = system: K-562 leukemia
BT-549 breast = system: BT-549 breast
NCI-H23 lung = system: NCI-H23 lung
HL-60(TB) leukemia = system: HL-60(TB) leukemia
NCI-H226 lung = system: NCI-H226 lung
MCF7 breast = system: MCF7 breast
SK-MEL-28 melanoma = system: SK-MEL-28 melanoma
MOLT-4 leukemia = system: MOLT-4 leukemia

O=C1NC(=NC2CCCCCC2)N/C1=C\c1ccc2ncoc2c1
GI50 (SR leukemia): 1.97 µM | TGI (SR leukemia): 8.09 µM | GI50 (SNB-19 CNS): 2.43 µM | TGI (SNB-19 CNS): 44.6 µM | GI50 (TK-10 renal): 3.86 µM | TGI (TK-10 renal): > 100 µM | GI50 (OVCAR-3 ovarian): 2.13 µM | TGI (OVCAR-3 ovarian): 9.17 µM | GI50 (HCC-2998 colon): 12.3 µM | TGI (HCC-2998 colon): 27.6 µM | GI50 (RPMI-8226 leukemia): 5.22 µM | TGI (RPMI-8226 leukemia): 31.7 µM | GI50 (SF-539 CNS): 1.01 µM | TGI (SF-539 CNS): 5.75 µM | GI50 (SNB-75 CNS): 0.757 µM | TGI (SNB-75 CNS): 12.3 µM | GI50 (HS 578T breast): 2.87 µM | TGI (HS 578T breast): 26.5 µM | GI50 (HOP-62 NSCLC): 3.3 µM | TGI (HOP-62 NSCLC): 45.6 µM | GI50 (NCI-H460 lung): 4.08 µM | TGI (NCI-H460 lung): 15.6 µM | GI50 (HT29 colon): 9.36 µM | TGI (HT29 colon): 37.8 µM | GI50 (UACC-62 melanoma): 2.74 µM | TGI (UACC-62 melanoma): 12 µM | GI50 (SW-620 colon): 3.27 µM | TGI (SW-620 colon): 18.9 µM | GI50 (OVCAR-5 ovarian): 4.33 µM | TGI (OVCAR-5 ovarian): 68.4 µM | GI50 (NCI-H522 lung): 1.27 µM | TGI (NCI-H522 lung): 15 µM | GI50 (T-47D breast): 2.87 µM | TGI (T-47D breast): 63.2 µM | GI50 (OVCAR-8 ovarian): 3.55 µM | TGI (OVCAR-8 ovarian): 18 µM | GI50 (PC-3 prostate): 8.53 µM | TGI (PC-3 prostate): 60.6 µM | GI50 (A498 renal): 2.09 µM | TGI (A498 renal): 8.84 µM | GI50 (A549 NSCLC): 3.01 µM | TGI (A549 NSCLC): 32.1 µM | GI50 (U251 CNS): 3.54 µM | TGI (U251 CNS): 68.9 µM | GI50 (EKVX NSCLC): 8.68 µM | TGI (EKVX NSCLC): 49.4 µM | GI50 (IGROV1 ovarian): 4.35 µM | TGI (IGROV1 ovarian): 34.1 µM | GI50 (ACHN renal): 2.68 µM | TGI (ACHN renal): 10.1 µM | GI50 (HCT-116 colon): 1.92 µM | TGI (HCT-116 colon): 10.9 µM | GI50 (LOX IMVI melanoma): 4.33 µM | TGI (LOX IMVI melanoma): 20.9 µM | GI50 (UACC-257 melanoma): 5.95 µM | TGI (UACC-257 melanoma): 23 µM | GI50 (HOP-92 NSCLC): 6.58 µM | TGI (HOP-92 NSCLC): 58.6 µM | GI50 (HCT-15 colon): 3.41 µM | TGI (HCT-15 colon): 26.4 µM | GI50 (KM12 colon): 3.83 µM | TGI (KM12 colon): 19.1 µM | GI50 (MDA-MB-468 breast): 2.44 µM | TGI (MDA-MB-468 breast): 12.6 µM | GI50 (786-0 renal): 5.02 µM | TGI (786-0 renal): 47 µM | GI50 (SK-MEL-5 melanoma): 3.66 µM | TGI (SK-MEL-5 melanoma): 14.8 µM | GI50 (SF-295 CNS): 7.52 µM | TGI (SF-295 CNS): > 100 µM | GI50 (MDA-MB-231 breast): 11.3 µM | TGI (MDA-MB-231 breast): 58.4 µM | GI50 (CAKI-1 renal): 2.61 µM | TGI (CAKI-1 renal): 12.9 µM | GI50 (CCRF-CEM leukemia): 2.87 µM | TGI (CCRF-CEM leukemia): 16.2 µM | GI50 (M14 melanoma): 8.62 µM | TGI (M14 melanoma): 25.2 µM | GI50 (SN12C renal): 2.89 µM | TGI (SN12C renal): 18.1 µM | GI50 (SF-268 CNS): 5.61 µM | TGI (SF-268 CNS): 38.8 µM | GI50 (MDA-MB-435): 6.27 µM | TGI (MDA-MB-435): 21.4 µM | GI50 (SK-MEL-2 melanoma): 2.86 µM | TGI (SK-MEL-2 melanoma): 9.46 µM | GI50 (RXF 393 renal): 2.02 µM | TGI (RXF 393 renal): 5.32 µM | GI50 (OVCAR-4 ovarian): 12.4 µM | TGI (OVCAR-4 ovarian): 53.4 µM | GI50 (SK-OV-3 ovarian): 2.71 µM | TGI (SK-OV-3 ovarian): 62.9 µM | GI50 (COLO 205 colon): 3.14 µM | TGI (COLO 205 colon): 14.2 µM | GI50 (MALME-3M melanoma): 10.5 µM | TGI (MALME-3M melanoma): 24.4 µM | GI50 (UO-31 renal): 3.31 µM | TGI (UO-31 renal): 9.46 µM | GI50 (DU-145 prostate): 4.02 µM | TGI (DU-145 prostate): 17.1 µM | GI50 (K-562 leukemia): 4.97 µM | TGI (K-562 leukemia): 37.2 µM | GI50 (BT-549 breast): 1.94 µM | TGI (BT-549 breast): 12.3 µM | GI50 (NCI-H23 lung): 3.16 µM | TGI (NCI-H23 lung): 18.7 µM | GI50 (HL-60(TB) leukemia): 3.69 µM | TGI (HL-60(TB) leukemia): 19.3 µM | GI50 (NCI-H226 lung): 2.63 µM | TGI (NCI-H226 lung): > 100 µM | GI50 (MCF7 breast): 3.58 µM | TGI (MCF7 breast): 30.2 µM | GI50 (SK-MEL-28 melanoma): 3.5 µM | TGI (SK-MEL-28 melanoma): 14.1 µM | GI50 (MOLT-4 leukemia): 3.51 µM | TGI (MOLT-4 leukemia): 22 µM
